Here are results for 4 molecules from patent US10336725B2, “Chemical compounds” (AstraZeneca AB, priority 2014, dated 2019).

For one assay, the target named is T1, Sodium Channel ENaC (Homo sapiens, UniProt P37088+P51168+P51170).
T1 construct: Human primary bronchial epithelial cells differentiated at air-liquid interface (ALI); host or cells: Human primary bronchial epithelial cells differentiated at air-liquid interface
T1 sequence (P37088 1-669): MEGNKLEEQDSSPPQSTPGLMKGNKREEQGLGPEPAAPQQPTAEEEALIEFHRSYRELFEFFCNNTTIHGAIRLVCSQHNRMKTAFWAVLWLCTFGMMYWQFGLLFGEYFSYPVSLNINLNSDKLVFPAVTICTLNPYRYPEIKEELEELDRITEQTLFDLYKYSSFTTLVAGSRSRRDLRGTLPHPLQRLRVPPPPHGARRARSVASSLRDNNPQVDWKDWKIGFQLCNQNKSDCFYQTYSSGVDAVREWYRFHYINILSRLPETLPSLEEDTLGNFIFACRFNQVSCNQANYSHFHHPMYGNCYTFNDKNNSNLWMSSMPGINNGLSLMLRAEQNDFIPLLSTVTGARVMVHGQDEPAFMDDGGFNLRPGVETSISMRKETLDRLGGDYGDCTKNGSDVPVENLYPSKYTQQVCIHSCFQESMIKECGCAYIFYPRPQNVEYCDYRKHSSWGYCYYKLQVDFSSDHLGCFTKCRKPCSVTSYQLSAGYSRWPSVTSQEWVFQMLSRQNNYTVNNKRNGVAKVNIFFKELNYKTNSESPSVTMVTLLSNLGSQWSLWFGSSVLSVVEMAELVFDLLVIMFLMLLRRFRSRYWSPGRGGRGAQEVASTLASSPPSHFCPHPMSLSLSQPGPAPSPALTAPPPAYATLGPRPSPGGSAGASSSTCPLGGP
T1 sequence (P51168 1-640): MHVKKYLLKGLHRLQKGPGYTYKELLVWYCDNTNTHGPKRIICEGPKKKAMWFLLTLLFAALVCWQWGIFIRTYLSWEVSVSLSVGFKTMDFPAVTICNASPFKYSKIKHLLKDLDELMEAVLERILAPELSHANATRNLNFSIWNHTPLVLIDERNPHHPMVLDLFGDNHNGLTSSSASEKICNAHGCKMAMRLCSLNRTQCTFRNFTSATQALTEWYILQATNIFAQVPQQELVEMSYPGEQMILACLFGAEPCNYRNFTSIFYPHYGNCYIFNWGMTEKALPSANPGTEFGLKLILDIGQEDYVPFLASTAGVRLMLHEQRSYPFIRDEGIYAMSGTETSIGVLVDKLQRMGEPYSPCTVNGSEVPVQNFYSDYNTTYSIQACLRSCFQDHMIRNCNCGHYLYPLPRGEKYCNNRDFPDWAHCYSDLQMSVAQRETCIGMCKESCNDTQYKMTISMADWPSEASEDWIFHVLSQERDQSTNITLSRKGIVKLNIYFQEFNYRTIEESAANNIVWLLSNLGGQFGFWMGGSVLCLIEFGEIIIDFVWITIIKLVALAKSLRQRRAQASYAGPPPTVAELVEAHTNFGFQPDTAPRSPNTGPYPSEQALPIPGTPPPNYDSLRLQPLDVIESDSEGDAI
T1 sequence (P51170 1-649): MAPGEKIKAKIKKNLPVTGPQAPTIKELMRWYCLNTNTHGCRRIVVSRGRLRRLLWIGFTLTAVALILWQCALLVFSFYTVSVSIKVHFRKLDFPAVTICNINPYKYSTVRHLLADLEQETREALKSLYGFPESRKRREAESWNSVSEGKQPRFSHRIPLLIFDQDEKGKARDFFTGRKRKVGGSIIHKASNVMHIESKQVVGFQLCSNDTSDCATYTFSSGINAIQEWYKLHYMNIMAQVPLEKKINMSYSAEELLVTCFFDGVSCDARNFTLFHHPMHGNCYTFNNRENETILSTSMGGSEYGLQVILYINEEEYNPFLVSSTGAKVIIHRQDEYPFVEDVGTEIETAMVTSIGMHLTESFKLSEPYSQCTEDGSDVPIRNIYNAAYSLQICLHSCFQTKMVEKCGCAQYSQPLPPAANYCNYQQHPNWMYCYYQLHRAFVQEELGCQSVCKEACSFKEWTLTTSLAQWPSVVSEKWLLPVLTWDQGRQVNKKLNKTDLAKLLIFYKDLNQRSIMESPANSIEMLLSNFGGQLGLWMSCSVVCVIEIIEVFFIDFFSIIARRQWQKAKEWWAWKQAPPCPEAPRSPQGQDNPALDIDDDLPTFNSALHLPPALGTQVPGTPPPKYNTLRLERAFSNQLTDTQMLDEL
In words: Sodium Channel ENaC Ussing Chamber Test (short circuit current). It is filed as cell-based. The conditions noted are these: human primary bronchial epithelial cells at air-liquid interface; inhibition of short circuit current; compounds added to the apical side. The protocol:
Sodium Channel ENaC Ussing Chamber Test
Human primary bronchial epithelial cells differentiated at air-liquid interface (ALI) on snapwell permeable supports (MatTek Corporation, MA, USA, cat no AIR-100-SNP) were maintained at ALI culture in a humidified incubator at 37° C. and 5% CO2. Basolateral medium (MatTek Corporation, MA, USA cat no AIR-100-MM-ASY) was changed every second day. Mucus or liquid formed on the apical side was gently aspirated every second day to maintain viability and performance of the cells.
The transepithelial voltage between the luminal/apical and basolateral membrane were measured in the ussing chamber consisted of vertical, in-house manufactured ussing chambers, DVC-1000 V/C clamps with preamplifiers (World Precision Instruments), electrode kits (EK1, World Precision Instruments), Power Lab with Chart5 software, water bath with external circulation and carbogen gas distribution and regulation system. Electrodes used in the set up were casted manually using 4% agarose in 0.9% sterile NaCl according to the manufacturer's recommendation.
The ussing chambers were assembled with an empty snapwell membrane (Costar 3407) and electrodes contained in Kreb's buffer (SIGMA-ALDRICH cat no K3753) for one hour at 37° C. in presence of 95% oxygen and 5% carbon dioxide. After this equilibration step the system was compensated for fluid resistance and input offset.
The equilibrated chambers were reassembled with a snapwell containing ALI cells and after 20 minutes stabilisation cumulative doses of the compounds were added to the apical side of the membrane. After the final dose 10 μM Benzamil was added to reach maximum.
All test compounds, including the reference compound, were diluted from 10 mM stocks in 100% DMSO and added to opaque 96-well plates (Greiner, Cat No. 651201). Dilution series of 12 doses were prepared in DMSO, starting with 3 μM followed by 10 times dilution steps.
Chart5 for Windows software was used to measure the value of the short circuit current after each compound addition. The data was transferred into Excel and analysed using IDBS XLfit® 5.2 (ID Business Solutions Ltd). The molar concentration of test or reference compound producing 50% inhibition (curve IC50) was derived by fitting data to a 4-parameter logistic function of the form: y=(A+((B−A)/(1+(((10^C)/x)^D))))
A The bottom plateau of the curve, i.e. the final minimum y value
B The top of the plateau of the curve i.e. the final maximum y value
C The log10 x value at a y value of 50%.

The next assay relates to normal subjects. The conditions noted are these: treatment of normal subjects; cited from earlier work.
The subject of assay [1] is ENaC β-subunit overexpressing transgenic mice. The conditions noted are these: administration to the lungs of the mice for 14 days after birth; cited from earlier work.

The structures appear in SMILES notation. Where a name gives a salt, the structure may show the parent alone.

Molecule `CCCCCCN(CCNC(=O)c1ccc(CCNC[C@H](CNC(=O)c2nc(Cl)c(N)nc2N)Cc2ccccc2C)cc1)C[C@H](O)[C@@H](O)[C@H](O)[C@H](O)CO` [Example 12, 3,5-diamino-6-chloro-N—((R)-3-((4-((2-(hexyl((2S,3R,4R,5R)-2,3,4,5,6-pentahydroxyhexyl)amino)ethyl)carbamoyl)phenethyl)amino)-2-(2-methylbenzyl)propyl)pyrazine-2-carboxamide Dihydrochloride] showed an IC50 against Sodium Channel ENaC of 251 pM.

As to `CCCCCCN(CCNC(=O)c1ccc(CCNC[C@H](CNC(=O)c2nc(Cl)c(N)nc2N)Cc2ccccc2C)cc1)C[C@H](O)[C@@H](O)[C@H](O)CO` [Example 13, 3,5-diamino-6-chloro-N—((R)-3-((4-((2-(hexyl((2S,3R,4R)-2,3,4,5-tetrahydroxypentyl)amino)ethyl)carbamoyl)phenethyl)amino)-2-(2-methylbenzyl)propyl)pyrazine-2-carboxamide Dihydrochloride], at Sodium Channel ENaC, the IC50 was 79.4 pM.

Turning to `CCCCCCN(CCNC(=O)c1ccc(CNC[C@@H](CNC(=O)c2nc(Cl)c(N)nc2N)Cc2ccccc2C)cc1)C[C@H](O)[C@@H](O)[C@H](O)CO` [Example 14, 3,5-diamino-6-chloro-N—((S)-3-((4-((2-(hexyl((2S,3R,4R)-2,3,4,5-tetrahydroxypentyl)amino)ethyl)carbamoyl)benzyl)amino)-2-(2-methylbenzyl)propyl)pyrazine-2-carboxamide Acetic Acid], at Sodium Channel ENaC, the IC50 is 31600 pM.

In the case of `N=C(N)NC(=O)c1nc(Cl)c(N)nc1N` [amiloride], in the assay with normal subjects, the ASL volume result is given as “increases” and the MCC rates entry is “increases”. Further, the mortality result in assay [1] is “significantly reduced”.

By IC50 is commonly meant the point on the concentration scale where inhibition reaches its midpoint.
